Results taken from US8901118B2, “Compounds and methods for kinase modulation, and indications therefor” (Plexxikon Inc., priority 2010, dated 2014).

The compounds below were run against CYP3A4(BQ) (Homo sapiens, UniProt P08684) (assay: CYP3A4(BQ) inhibition). Details: CYP3A4, substrate BQ; read-out: Cyp IC50 3A4(BQ).
Assay type: in vitro ADME
How it was run: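 After 30 min incubation at 37° C, plates were read on a Tecan Safire 2 at 409 ex/460 em, and IC50 values came from signal plotted against compound concentration. Enzyme and substrate were sourced from BD Biosciences. The cofactor mix held 1.3% NADPH Regeneration system Solution A, 1.04% Solution B, 5% acetonitrile and 0.05% DMSO.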

Chain of CYP3A4(BQ) (P08684 whole entry): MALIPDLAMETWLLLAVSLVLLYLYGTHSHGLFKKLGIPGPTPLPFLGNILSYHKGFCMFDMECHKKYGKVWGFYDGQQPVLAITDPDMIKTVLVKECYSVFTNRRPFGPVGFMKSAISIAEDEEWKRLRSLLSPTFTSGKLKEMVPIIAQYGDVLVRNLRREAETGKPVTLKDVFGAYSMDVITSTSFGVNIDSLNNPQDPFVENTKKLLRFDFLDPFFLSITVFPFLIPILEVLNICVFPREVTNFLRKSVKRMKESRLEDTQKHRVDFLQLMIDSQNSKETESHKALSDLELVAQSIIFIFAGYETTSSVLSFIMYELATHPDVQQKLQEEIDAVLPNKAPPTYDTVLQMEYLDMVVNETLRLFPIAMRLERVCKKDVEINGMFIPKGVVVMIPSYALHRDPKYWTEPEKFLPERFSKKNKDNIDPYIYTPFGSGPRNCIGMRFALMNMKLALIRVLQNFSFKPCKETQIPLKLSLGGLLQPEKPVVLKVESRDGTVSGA

| Structure (SMILES) | IC50 [µM] |
| --- | --- |
| Cc1cnc2[nH]cc(Cc3ccc(Nc4ccc(C)nc4)nc3F)c2c1 [Compound P-3041, [6-Fluoro-5-(5-methyl-1H-pyrrolo[2,3-b]pyridin-3-ylmethyl)-pyridin-2-yl]-(6-methyl-pyridin-3-yl)-amine] | > 10 |
| CCn1cc(Nc2ccc(Cc3c[nH]c4ncnc(C5CC5)c34)c(F)n2)cn1 [Compound P-4036, [5-(4-Cyclopropyl-7H-pyrrolo[2,3-d]pyrimidin-5-ylmethyl)-6-fluoro-pyridin-2-yl]-(1-ethyl-1H-pyrazol-4-yl)-amine] | 5 to 10 |
| CCn1cc(Nc2ccc(C(=O)c3c[nH]c4ncnc(C5CC5)c34)c(F)n2)cn1 [Compound P-4037, (4-Cyclopropyl-7H-pyrrolo[2,3-d]pyrimidin-5-yl)-[6-(1-ethyl-1H-pyrazol-4-ylamino)-2-fluoro-pyridin-3-yl]-methanone] | 5 to 10 |
| Cc1ccc(Nc2ccc(Cc3c[nH]c4ncnc(C5CC5)c34)c(F)n2)cn1 [Compound P-4030, [5-(4-Cyclopropyl-7H-pyrrolo[2,3-d]pyrimidin-5-ylmethyl)-6-fluoro-pyridin-2-yl]-(6-methyl-pyridin-3-yl)-amine] | > 10 |
| Fc1nc(Nc2ccc(C3CC3)nc2)ccc1Cc1c[nH]c2ncccc12 [Compound P-3053, (6-Cyclopropyl-pyridin-3-yl)-[6-fluoro-5-(1H-pyrrolo[2,3-b]pyridin-3-ylmethyl)-pyridin-2-yl]-amine] | > 10 |
| Fc1nc(NC2CCC(F)(F)CC2)ccc1Cc1c[nH]c2ncnc(NC3CC3)c12 [Compound P-4129, N-cyclopropyl-5-[[6-[(4,4-difluorocyclohexyl)amino]-2-fluoro-3-pyridyl]methyl]-7H-pyrrolo[2,3-d]pyrimidin-4-amine] | < 5 |
| Cc1cnc2[nH]cc(C(=O)c3ccc(Nc4ccc(C5CC5)nc4)nc3F)c2c1 [Compound P-3051, [6-(6-Cyclopropyl-pyridin-3-ylamino)-2-fluoro-pyridin-3-yl]-(5-methyl-1H-pyrrolo[2,3-b]pyridin-3-yl)-methanone] | > 10 |
| Cc1ccc(Nc2ccc(C(=O)c3c[nH]c4ncnc(C5CC5)c34)c(F)n2)cn1 [Compound P-4031, (4-Cyclopropyl-7H-pyrrolo[2,3-d]pyrimidin-5-yl)-[2-fluoro-6-(6-methyl-pyridin-3-ylamino)-pyridin-3-yl]-methanone] | > 10 |
| Fc1nc(Nc2ccc(C3CC3)nc2)ccc1Cc1c[nH]c2ncnc(NCC(F)(F)F)c12 [Compound P-4130, 5-[[6-[(6-cyclopropyl-3-pyridyl)amino]-2-fluoro-3-pyridyl]methyl]-N-(2,2,2-trifluoroethyl)-7H-pyrrolo[2,3-d]pyrimidin-4-amine] | > 10 |
| CCc1ccc(Nc2ccc(C(=O)c3c[nH]c4ncc(C)cc34)c(F)n2)cn1 [Compound P-3049, [6-(6-Ethyl-pyridin-3-ylamino)-2-fluoro-pyridin-3-yl]-(5-methyl-1H-pyrrolo[2,3-b]pyridin-3-yl)-methanone] | > 10 |
| Clc1cnc2[nH]cc(Cc3cnc(NC4CCCCC4)nc3)c2c1 [Compound P-3001, [5-(5-chloro-1H-pyrrolo[2,3-b]pyridin-3-ylmethyl)-pyrimidin-2-yl]-cyclohexyl-amine] | > 10 |
| COc1ccc(Nc2ccc(C(=O)c3c[nH]c4ncnc(C5CC5)c34)c(F)n2)cn1 [Compound P-4022, (4-cyclopropyl-7H-pyrrolo[2,3-d]pyrimidin-5-yl)-[2-fluoro-6-(6-methoxy-pyridin-3-ylamino)-pyridin-3-yl]-methanone] | > 10 |
| Cc1cnc2[nH]cc(C(=O)c3ccc(Nc4ccc(C)nc4)nc3F)c2c1 [Compound P-3043, [2-Fluoro-6-(6-methyl-pyridin-3-ylamino)-pyridin-3-yl]-(5-methyl-1H-pyrrolo[2,3-b]pyridin-3-yl)-methanone] | > 10 |
| COc1ccc(Nc2ccc(Cc3c[nH]c4ncnc(C5CC5)c34)c(F)n2)cn1 [Compound P-4023, [5-(4-cyclopropyl-7H-pyrrolo[2,3-d]pyrimidin-5-ylmethyl)-6-fluoro-pyridin-2-yl]-(6-methoxy-pyridin-3-yl)-amine] | > 10 |
| Fc1nc(NC2CCC(F)(F)CC2)ccc1Cc1c[nH]c2ncnc(NCC(F)(F)F)c12 [Compound P-4128, 5-[[6-[(4,4-difluorocyclohexyl)amino]-2-fluoro-3-pyridyl]methyl]-N-(2,2,2-trifluoroethyl)-7H-pyrrolo[2,3-d]pyrimidin-4-amine] | > 10 |
| O=C(c1ccc(Nc2ccc(C3CC3)nc2)nc1F)c1c[nH]c2ncccc12 [Compound P-3052, [6-(6-Cyclopropyl-pyridin-3-ylamino)-2-fluoro-pyridin-3-yl]-(1H-pyrrolo[2,3-b]pyridin-3-yl)-methanone] | > 10 |
| CCc1ccc(Nc2ccc(Cc3c[nH]c4ncc(C)cc34)c(F)n2)cn1 [Compound P-3048, (6-Ethyl-pyridin-3-yl)-[6-fluoro-5-(5-methyl-1H-pyrrolo[2,3-b]pyridin-3-ylmethyl)-pyridin-2-yl]-amine] | > 10 |
| Cc1ccc(Nc2ccc(C(=O)c3c[nH]c4ncc(Cl)cc34)c(F)n2)cn1 [Compound P-3044, (5-Chloro-1H-pyrrolo[2,3-b]pyridin-3-yl)-[2-fluoro-6-(6-methyl-pyridin-3-ylamino)-pyridin-3-yl]-methanone] | > 10 |
| Cc1cnc2[nH]cc(Cc3ccc(Nc4ccc(C5CC5)nc4)nc3F)c2c1 [Compound P-3050, (6-Cyclopropyl-pyridin-3-yl)-[6-fluoro-5-(5-methyl-1H-pyrrolo[2,3-b]pyridin-3-ylmethyl)-pyridin-2-yl]-amine] | > 10 |
| CCOc1ccc(Nc2ccc(C(=O)c3c[nH]c4ncnc(OC)c34)c(F)n2)cn1 [Compound P-4024, [6-(6-Ethoxy-pyridin-3-ylamino)-2-fluoro-pyridin-3-yl]-(4-methoxy-7H-pyrrolo[2,3-d]pyrimidin-5-yl)-methanone] | > 10 |
| COc1ccc(Nc2ccc(C(=O)c3c[nH]c4ncc(C)cc34)c(F)n2)cn1 [Compound P-3040, [2-Fluoro-6-(6-methoxy-pyridin-3-ylamino)-pyridin-3-yl]-(5-methyl-1H-pyrrolo[2,3-b]pyridin-3-yl)-methanone] | > 10 |
| CCc1ccc(Nc2ccc(Cc3c[nH]c4ncnc(C5CC5)c34)c(F)n2)cn1 [Compound P-4028, [5-(4-Cyclopropyl-7H-pyrrolo[2,3-d]pyrimidin-5-ylmethyl)-6-fluoro-pyridin-2-yl]-(6-ethyl-pyridin-3-yl)-amine] | > 10 |
| CCOc1ncnc2[nH]cc(C(=O)c3ccc(Nc4ccc(OC)nc4)nc3F)c12 [Compound P-4025, (4-Ethoxy-7H-pyrrolo[2,3-d]pyrimidin-5-yl)-[2-fluoro-6-(6-methoxy-pyridin-3-ylamino)-pyridin-3-yl]-methanone] | > 10 |
| COc1ccc(Nc2ccc(Cc3c[nH]c4ncnc(C)c34)c(F)n2)cn1 [Compound P-4002, [6-Fluoro-5-(4-methyl-7H-pyrrolo[2,3-d]pyrimidin-5-ylmethyl)-pyridin-2-yl]-(6-methoxy-pyridin-3-yl)-amine] | > 10 |
| CCc1ccc(Nc2ccc(C(=O)c3c[nH]c4ncnc(C5CC5)c34)c(F)n2)cn1 [Compound P-4029, (4-Cyclopropyl-7H-pyrrolo[2,3-d]pyrimidin-5-yl)-[6-(6-ethyl-pyridin-3-ylamino)-2-fluoro-pyridin-3-yl]-methanone] | > 10 |
